Measured values as given in patent US20080306162A1, “Treatment of Inflammatory Disorders and Pain” (priority 2005, published 2008).

Legend:
IL-10 = assay: LPS mouse assay, serum IL-10 by ELISA; assay type: in vivo, Balb C ByJ mice; settings: i.p. or oral 30 minutes before 1 mg/kg LPS i.p., serum 2 hours after LPS
Procedure: (§1) 7 week old Balb C ByJ mice (24-28 g) were administered, either by i.p. (5 ml/kg) or oral (10 ml/kg) administration, with vehicle or test article. 30 minutes later these animals were challenged with an intraperitoneal injection of 1 mg/kg LPS. 2 hours after LPS challenge blood samples were collected under light isoflurane anaesthesia into normal tubes by retro-orbital puncture. Samples were allowed to clot at room temperature and then spun at 6000 g for 3 min at 4° C. Serum was stored at −20° C. until use. Serum TNFα and IL-10 levels were analysed in duplicate by ELISA technique.

TNFα = assay: LPS mouse assay, serum TNFα by ELISA; assay type: in vivo, Balb C ByJ mice; settings: i.p. or oral 30 minutes before 1 mg/kg LPS i.p., serum 2 hours after LPS
Procedure: as §1

male Wistar rats = assay: Carrageenan paw assay; assay type: in vivo; settings: rat
Procedure: Fasted (18 hour) male Wistar rats (105-130 g) were weighed and a basal mercury plethysmometer reading was taken of the right hind paw by submerging the paw in the mercury up to the tibiotarsal joint. Subsequently, vehicles, reference items and test articles were administered by oral gavage (10 ml/kg). Half an hour after treatment, 0.1 ml of 2% carrageenan in 0.9% saline was injected into the subplanatar area of the right hind paw. The right paw was measured again with the plethysmometer at 1, 2, 3, 4 and 5 hours after carrageenan administration.

## CC(C)(CO)NCC(O)c1cc(Cl)c(N)c(Cl)c1 (racemic) [Example 1, 2-[2-(4-amino-3,5-dichlorophenyl)-2-hydroxyethylamino]-2-methylpropan-1-ol]
IL-10; 10 mg/kg
  IL-10 production potentiated: 417%
IL-10; 30 mg/kg
  IL-10 production potentiated: 392%
TNFα; 10 mg/kg
  inhibition of TNFα production: 60%
TNFα; 30 mg/kg
  inhibition of TNFα production: 61%

## CC(C)(CO)NCC(O)c1cc(Cl)c(N)c(Cl)c1 (single isomer, unassigned) [2-[2-(4-amino-3,5-dichlorophenyl)-2-hydroxyethylamino]-2-methylpropan-1-ol]
Male Wistar rats; 0.3 mg/kg oral gavage
  inhibition in the carageenan paw assay: 18%
Male Wistar rats; 1 mg/kg oral gavage
  inhibition in the carageenan paw assay: 28%
Male Wistar rats; 3 mg/kg oral gavage
  inhibition in the carageenan paw assay: 26%
Male Wistar rats; 10 mg/kg oral gavage
  inhibition in the carageenan paw assay: 59%
Male Wistar rats; 30 mg/kg oral gavage
  inhibition in the carageenan paw assay: 71%
Male Wistar rats; 0.3 to 30 mg/kg oral gavage
  anti-inflammatory dose response in the carageenan paw assay: clear anti-inflammatory dose response curve

## CC(C)(CO)NCC(O)c1ccccc1 (stereo not shown) [Example 2, 2-(2-phenyl-2-hydroxyethylamino)-2-methyl-propan-1-ol]
IL-10; 10 mg/kg
  IL-10 production potentiated: 345%
IL-10; 30 mg/kg
  IL-10 production potentiated: 366%
TNFα; 10 mg/kg
  inhibition of TNFα production: 47%
TNFα; 30 mg/kg
  inhibition of TNFα production: 58%

## CC(C)(CO)NCC(O)c1ccc(F)cc1 (stereo not shown) [Example 3, 2-[2-(4-fluorophenyl)-2-hydroxyethylamino]-2-methylpropan-1-ol]
IL-10; 10 mg/kg
  IL-10 production potentiated: 106%
IL-10; 30 mg/kg
  IL-10 production potentiated: 125%
TNFα; 10 mg/kg
  inhibition of TNFα production: 37%
TNFα; 30 mg/kg
  inhibition of TNFα production: 37%

## CC(C)Cc1ccc(C(C)C(=O)O)cc1 (stereo not shown) [Ibuprofen, reference compound]
Male Wistar rats; 100 mg/kg oral gavage
  anti-inflammatory in the carageenan paw assay: 38%
